Among the data in patent US10233186B2, “Inhibitors of activin receptor-like kinase” (BLUEPRINT MEDICINES CORPORATION, priority 2016, dated 2019) are IC50 values, retold here.

Molecules are shown by their SMILES.

The term IC50 denotes the concentration that gives 50% inhibition.

Assay [1] concerns the target T1, ALK2 R206H (GST-tagged mutant ALK2) (Homo sapiens, UniProt Q04771, R206H).
T1 construct: purchased Carna Bioscience or ThermoFisher 09-148 or PV6232
T1 sequence (Q04771 21-509 R206H): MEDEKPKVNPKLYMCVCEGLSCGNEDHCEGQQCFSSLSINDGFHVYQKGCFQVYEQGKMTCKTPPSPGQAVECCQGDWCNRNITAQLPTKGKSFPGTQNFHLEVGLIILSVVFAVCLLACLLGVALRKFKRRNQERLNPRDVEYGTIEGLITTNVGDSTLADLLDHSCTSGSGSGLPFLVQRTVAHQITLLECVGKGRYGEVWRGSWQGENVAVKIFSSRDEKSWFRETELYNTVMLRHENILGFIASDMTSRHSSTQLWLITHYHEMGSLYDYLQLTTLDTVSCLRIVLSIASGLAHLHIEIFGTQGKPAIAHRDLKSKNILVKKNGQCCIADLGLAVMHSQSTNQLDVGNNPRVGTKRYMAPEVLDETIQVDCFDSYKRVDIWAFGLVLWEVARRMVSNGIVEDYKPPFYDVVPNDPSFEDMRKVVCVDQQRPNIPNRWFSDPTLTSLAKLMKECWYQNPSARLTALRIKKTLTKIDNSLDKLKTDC
The assay can be described thus: ALK binding assay (LANTHASCREEN TR-FRET competitive binding, displacement of Kinase Tracer 178). As to conditions: ALK2 R206H, LANTHASCREEN TR-FRET competitive binding; read-out: Binding Assay (IC50). (In general: Time-resolved FRET reads energy transfer from a long-lived donor to a nearby acceptor.)

For assay [2], the target named is T2, human ALK2 R206H (Homo sapiens, UniProt Q04771, R206H).
T2 construct: expressed in transfected cells; host or cells: HEK293 (ATCC CRL1573), lentivirus transduction, blasticidin selection
T2 sequence (Q04771 21-509 R206H): T1 sequence (Q04771 21-509 R206H)
As to the kind of experiment: Cell-based ALK2-R206H cell activity assay (Smad1-Ser463/Ser465 phosphorylation by AlphaLISA in HEK293-ALK2-R206H cells). As to conditions: read-out: Cell Line (Cell Assay IC50). The method, then:
A HEK293 (ATCC, Cat^# CRL1573) based stable cell line expressing human ALK2 R206H cDNA (synthesized by GeneScript, Piscataway, N.J.) and a FLAG tag at the C-terminus was generated by lentivirus transduction and subsequent blasticidin (Life Technologies, Cat^#-A1113902) selection at 10 μg/ml for >2 wks. This cell line was named HEK293-ALK2-R206H.
Test compounds were first diluted to 4 mM or 0.4 mM and then serially diluted 3-fold into 10 different concentrations using DMSO. […] Two μl of the diluted compounds were then dispensed into the HEK293-ALK2-R206H cell-containing wells of the microplates in duplicates. In this way, each compound was tested in 10 doses (3-fold serial dilution with the top concentration being 10 μM or 1 μM). Liquid handling was achieved using a Bravo Automated Liquid Handling Platform (Agilent Technologies). DMSO without compound was used as a negative control. The positive control was 1 μM LDN193189, a known bone morphogenetic protein (BMP inhibitor).
The 10-point dose response curve was used to calculate the IC50 values.
Blank values in the table indicate that the particular compound was not tested in this assay.

As for `CC(C)N1CC(c2ccc(-c3cc4c(N5CCN(C(=O)C6CC6)CC5)ccnn4c3)cc2)C1` [Compound 150, cyclopropyl(4-(6-(4-(1-isopropylazetidin-3-yl)phenyl)pyrrolo[1,2-b]pyridazin-4-yl)piperazin-1-yl)methanone], the IC50 in assay [1] was below 10 nM; in assay [2] it was below 100 nM.
In the same order, the values of `C[C@@H]1CN(c2ccnn3cc(-c4ccc(N5CCNCC5)cc4)cc23)CCN1C(=O)C1CC1` [Compound 152] are below 10 nM and below 100 nM.
On to `CN1CCN(c2ccc(-c3cc4c(N5CCN(C(=O)C6CC6)CC5)ccnn4c3)cc2)CC1` [Compound 153], for which the IC50 in assay [1] is below 10 nM; in assay [2] it was 100 to 500 nM.
With `O=C(C1CCC1)N1CCN(c2ccnn3cc(-c4ccc(N5CCNCC5)cc4)cc23)CC1` [Compound 154], the figures for the IC50 in assay [1] and in assay [2] were below 10 nM and 100 to 500 nM, respectively.
The corresponding values for `C[C@@H]1CN(c2ccc(-c3cc4c(N5CCN(C(=O)C6CC6)CC5)ccnn4c3)cc2)CCN1` [Compound 155] are below 10 nM and 100 to 500 nM.
In the same order, the values of `C[C@H]1CN(c2ccc(-c3cc4c(N5CCN(C(=O)C6CC6)CC5)ccnn4c3)cc2)CCN1` [Compound 156] are below 10 nM and below 100 nM.
In the same order, the values of `NC1CCN(c2ccc(-c3cc4c(N5CCN(C(=O)C6CC6)CC5)ccnn4c3)cc2)CC1` [Compound 158] are below 10 nM and 100 to 500 nM.
Regarding `O=C(C1CC1)N1CCN(c2ccnn3cc(-c4ccc(OC5CCCNC5)cc4)cc23)CC1` (centres unmarked) [Compound 159], the values for the IC50 in assay [1] and in assay [2] were below 10 nM and below 100 nM, respectively.
The corresponding values for `O=C(C1CC1)N1CCN(c2ccnn3cc(-c4ccc(OC5CCNCC5)cc4)cc23)CC1` [Compound 160] are below 10 nM and 100 to 500 nM.
In the same order, the values of `CCN1CC(O)(c2ccc(-c3cc4c(N5CCN(C(=O)C6CC6)CC5)ccnn4c3)cc2)C1` [Compound 161] are below 10 nM and below 100 nM.
The corresponding values for `O=C(C1CC1)N1CCN(c2ccnn3cc(-c4ccc(O[C@@H]5CCCNC5)cc4)cc23)CC1` [Compound 162] are below 10 nM and below 100 nM.
As to `O=C(C1CC1)N1CCN(c2ccnn3cc(-c4ccc(O[C@H]5CCCNC5)cc4)cc23)CC1` [Compound 163], the IC50 in assay [1] is below 10 nM; in assay [2] it was below 100 nM.
On to `C[C@@H]1CNC[C@H](c2ccc(-c3cc4c(N5CCN(C(=O)C6CC6)CC5)ccnn4c3)cc2)O1` [Compound 164], for which the figures for the IC50 in assay [1] and in assay [2] were below 10 nM and 100 to 500 nM, respectively.
In the same order, the values of `CCN1CC(Oc2ccc(-c3cc4c(N5CCN(C(=O)C6CC6)CC5)ccnn4c3)cc2)C1` [Compound 167] are below 10 nM and below 100 nM.
The corresponding values for `C[C@H]1CNC[C@H](c2ccc(-c3cc4c(N5CCN(C(=O)C6CC6)CC5)ccnn4c3)cc2)O1` [Compound 169] are below 10 nM and 100 to 500 nM.
Consider `C[C@@H]1CN(c2ccnn3cc(-c4ccc(N5CCNCC5)nc4)cc23)CCN1C(=O)C1CC1` [Compound 170], for which the values for the half-inhibitory concentration (IC50) in assay [1] and in assay [2] were 10 to 50 nM and 100 to 500 nM, respectively.
In the same order, the values of `O=C(C1CC1)N1CCN(c2ccnn3cc(-c4ccc(C5(O)CCOCC5)cc4)cc23)CC1` [Compound 172] are below 10 nM and 100 to 500 nM.
The corresponding values for `CCC(=O)N1CCN(c2ccnn3cc(-c4ccc(N5CCN(CC)CC5)cc4)cc23)CC1` [Compound 173] are 10 to 50 nM and above 500 nM.
Consider `O=C(C1CC1)N1CCN(c2ccnn3cc(-c4ccc(C5CCNCC5F)cc4)cc23)CC1` (centres unmarked) [Compound 174], for which the IC50 in assay [1] is below 10 nM; in assay [2], 100 to 500 nM.
The corresponding values for `O=C(C1CC1)N1CCN(c2ccnn3cc(-c4ccc(C5(F)CCCNC5)cc4)cc23)CC1` (centres unmarked) [Compound 177] are below 10 nM and below 100 nM.
As for `O=C(C1CC1)N1CCN(c2ccnn3cc(-c4ccc([C@@]5(F)CCCNC5)cc4)cc23)CC1` [Compound 178], the figures for the half-maximal inhibitory concentration (IC50) in assay [1] and in assay [2] were below 10 nM and below 100 nM, respectively.
The corresponding values for `O=C(C1CC1)N1CCN(c2ccnn3cc(-c4ccc([C@]5(F)CCCNC5)cc4)cc23)CC1` [Compound 179] are below 10 nM and below 100 nM.
The corresponding values for `CCOC(=O)N1CCN(c2ccnn3cc(-c4ccc([C@H]5CCN(CC)C5)cc4)cc23)CC1` [Compound 181] are below 10 nM and below 100 nM.
In the same order, the values of `CCOC(=O)N1CCN(c2ccnn3cc(-c4ccc(C5CN(C(C)C)C5)cc4)cc23)CC1` [Compound 182] are below 10 nM and below 100 nM.
`O=C([C@H]1C[C@@H]1F)N1CCN(c2ccnn3cc(-c4ccc(N5CCNCC5)cc4)cc23)CC1` [Compound 184]: the IC50 in assay [1] was below 10 nM; in assay [2], below 100 nM.
In the same order, the values of `O=C([C@H]1C[C@H]1F)N1CCN(c2ccnn3cc(-c4ccc(N5CCNCC5)cc4)cc23)CC1` [Compound 185] are below 10 nM and below 100 nM.
With `O=C([C@@H]1C[C@H]1F)N1CCN(c2ccnn3cc(-c4ccc(N5CCNCC5)nc4)cc23)CC1` [Compound 186], the concentration for half-maximal inhibition (IC50) in assay [1] is below 10 nM; in assay [2] it was 100 to 500 nM.
In the same order, the values of `CC(C)N1CCc2cc(-c3cc4c(N5CCN(C(=O)C6CC6)CC5)ccnn4c3)sc2C1` [Compound 187] are below 10 nM and below 100 nM.
The corresponding values for `CCNC(=O)N1CCN(c2ccnn3cc(-c4ccc([C@]5(F)CCCNC5)cc4)cc23)CC1` [Compound 188] are below 10 nM and below 100 nM.
The corresponding values for `CCNC(=O)N1CCN(c2ccnn3cc(-c4ccc([C@@]5(F)CCCNC5)cc4)cc23)CC1` [Compound 189] are below 10 nM and below 100 nM.
For the compound `CC(C)N1CCc2nc(-c3cc4c(N5CCN(C(=O)C6CC6)CC5)ccnn4c3)sc2C1` [Compound 191], the half-inhibitory concentration (IC50) in assay [1] was below 10 nM; in assay [2] it was below 100 nM.
For `CCNC(=O)N1CCN(c2ccnn3cc(-c4cc5c(s4)CN(C(C)C)CC5)cc23)CC1` [Compound 192], the IC50 in assay [1] is below 10 nM; in assay [2] it was below 100 nM.
The corresponding values for `CCNC(=O)N1CCN(c2ccnn3cc(-c4nc5c(s4)CN(C(C)C)CC5)cc23)CC1` [Compound 193] are below 10 nM and below 100 nM.
With `O=C(C1CC1)N1CCN(c2ccnn3cc(-c4cnn(C5CNCC(F)(F)C5)c4)cc23)CC1` (centres unmarked) [Compound 194, cyclopropyl(4-(6-(1-(5,5-difluoropiperidin-3-yl)-1H-pyrazol-4-yl)pyrrolo[1,2-b]pyridazin-4-yl)piperazin-1-yl)methanone], the IC50 in assay [1] was 10 to 50 nM; in assay [2] it was 100 to 500 nM.
In the same order, the values of `N#C[C@H]1C[C@@H]1C(=O)N1CCN(c2ccnn3cc(-c4ccc(C5CNCCO5)cc4)cc23)CC1` (some centres unmarked) [Compound 195] are below 10 nM and below 100 nM.
For the compound `O=C(C1CC1)N1CCN(c2ccnn3cc(-c4ccc(N5CCN6CCC6C5)cc4)cc23)CC1` (centres unmarked) [Compound 196], the IC50 in assay [1] was below 10 nM; in assay [2], 100 to 500 nM.
In the same order, the values of `O=C(C1CC1)N1CCN(c2ccnn3cc(-c4ccc(N5CC6(CCNC6)C5)cc4)cc23)CC1` [Compound 197] are 10 to 50 nM and 100 to 500 nM.
In the same order, the values of `C[C@@H]1CN(c2ccnn3cc(-c4ccc(N5CCNCC5)cc4)cc23)CCN1C(=O)CCC#N` [Compound 199] are below 10 nM and below 100 nM.
In the same order, the values of `CCN1CCC(c2ccc(-c3cc4c(N5CCN(C(=O)C6CC6)CC5)ccnn4c3)cc2)CC1` [Compound 200] are below 10 nM and below 100 nM.
Take `CC(C)N1CCC(c2ccc(-c3cc4c(N5CCN(C(=O)C6CC6)CC5)ccnn4c3)cc2)C1` (centres unmarked) [Compound 201]: the IC50 in assay [1] was below 10 nM; in assay [2], below 100 nM.
The corresponding values for `CCN1CCCC(c2ccc(-c3cc4c(N5CCN(C(=O)C6CC6)CC5)ccnn4c3)cc2)C1` (centres unmarked) [Compound 202] are below 10 nM and below 100 nM.
The corresponding values for `CC(C)N1CC[C@@H](c2ccc(-c3cc4c(N5CCN(C(=O)C6CC6)CC5)ccnn4c3)cc2)C1` [Compound 203] are below 10 nM and below 100 nM.
With `CC(C)N1CC[C@H](c2ccc(-c3cc4c(N5CCN(C(=O)C6CC6)CC5)ccnn4c3)cc2)C1` [Compound 204], the half-maximal inhibitory concentration (IC50) in assay [1] is below 10 nM; in assay [2], below 100 nM.
